Assay results as given in US20260297108A1, “NOVEL INHIBITORS OF PIKFYVE AND METHODS USING SAME” (priority 2023, published 2026).
Where two headings read alike, the source gives them in different places.

Assays:
[1] = test system: IL-12 and IL-23 synthesis; conditions: background; cited from earlier work
[2] = test system: enveloped viruses; conditions: background; cited from earlier work
[3] = biological target: T1, PIKFYVE (Homo sapiens, UniProt Q9Y2I7); parameters: T7 phage display fusion, or alternatively DNA tag for qPCR (general KINOMEscan description); purchased Eurofins; conditions: background; cited from earlier work
T1 sequence (Q9Y2I7 whole entry, the tested form may be a part): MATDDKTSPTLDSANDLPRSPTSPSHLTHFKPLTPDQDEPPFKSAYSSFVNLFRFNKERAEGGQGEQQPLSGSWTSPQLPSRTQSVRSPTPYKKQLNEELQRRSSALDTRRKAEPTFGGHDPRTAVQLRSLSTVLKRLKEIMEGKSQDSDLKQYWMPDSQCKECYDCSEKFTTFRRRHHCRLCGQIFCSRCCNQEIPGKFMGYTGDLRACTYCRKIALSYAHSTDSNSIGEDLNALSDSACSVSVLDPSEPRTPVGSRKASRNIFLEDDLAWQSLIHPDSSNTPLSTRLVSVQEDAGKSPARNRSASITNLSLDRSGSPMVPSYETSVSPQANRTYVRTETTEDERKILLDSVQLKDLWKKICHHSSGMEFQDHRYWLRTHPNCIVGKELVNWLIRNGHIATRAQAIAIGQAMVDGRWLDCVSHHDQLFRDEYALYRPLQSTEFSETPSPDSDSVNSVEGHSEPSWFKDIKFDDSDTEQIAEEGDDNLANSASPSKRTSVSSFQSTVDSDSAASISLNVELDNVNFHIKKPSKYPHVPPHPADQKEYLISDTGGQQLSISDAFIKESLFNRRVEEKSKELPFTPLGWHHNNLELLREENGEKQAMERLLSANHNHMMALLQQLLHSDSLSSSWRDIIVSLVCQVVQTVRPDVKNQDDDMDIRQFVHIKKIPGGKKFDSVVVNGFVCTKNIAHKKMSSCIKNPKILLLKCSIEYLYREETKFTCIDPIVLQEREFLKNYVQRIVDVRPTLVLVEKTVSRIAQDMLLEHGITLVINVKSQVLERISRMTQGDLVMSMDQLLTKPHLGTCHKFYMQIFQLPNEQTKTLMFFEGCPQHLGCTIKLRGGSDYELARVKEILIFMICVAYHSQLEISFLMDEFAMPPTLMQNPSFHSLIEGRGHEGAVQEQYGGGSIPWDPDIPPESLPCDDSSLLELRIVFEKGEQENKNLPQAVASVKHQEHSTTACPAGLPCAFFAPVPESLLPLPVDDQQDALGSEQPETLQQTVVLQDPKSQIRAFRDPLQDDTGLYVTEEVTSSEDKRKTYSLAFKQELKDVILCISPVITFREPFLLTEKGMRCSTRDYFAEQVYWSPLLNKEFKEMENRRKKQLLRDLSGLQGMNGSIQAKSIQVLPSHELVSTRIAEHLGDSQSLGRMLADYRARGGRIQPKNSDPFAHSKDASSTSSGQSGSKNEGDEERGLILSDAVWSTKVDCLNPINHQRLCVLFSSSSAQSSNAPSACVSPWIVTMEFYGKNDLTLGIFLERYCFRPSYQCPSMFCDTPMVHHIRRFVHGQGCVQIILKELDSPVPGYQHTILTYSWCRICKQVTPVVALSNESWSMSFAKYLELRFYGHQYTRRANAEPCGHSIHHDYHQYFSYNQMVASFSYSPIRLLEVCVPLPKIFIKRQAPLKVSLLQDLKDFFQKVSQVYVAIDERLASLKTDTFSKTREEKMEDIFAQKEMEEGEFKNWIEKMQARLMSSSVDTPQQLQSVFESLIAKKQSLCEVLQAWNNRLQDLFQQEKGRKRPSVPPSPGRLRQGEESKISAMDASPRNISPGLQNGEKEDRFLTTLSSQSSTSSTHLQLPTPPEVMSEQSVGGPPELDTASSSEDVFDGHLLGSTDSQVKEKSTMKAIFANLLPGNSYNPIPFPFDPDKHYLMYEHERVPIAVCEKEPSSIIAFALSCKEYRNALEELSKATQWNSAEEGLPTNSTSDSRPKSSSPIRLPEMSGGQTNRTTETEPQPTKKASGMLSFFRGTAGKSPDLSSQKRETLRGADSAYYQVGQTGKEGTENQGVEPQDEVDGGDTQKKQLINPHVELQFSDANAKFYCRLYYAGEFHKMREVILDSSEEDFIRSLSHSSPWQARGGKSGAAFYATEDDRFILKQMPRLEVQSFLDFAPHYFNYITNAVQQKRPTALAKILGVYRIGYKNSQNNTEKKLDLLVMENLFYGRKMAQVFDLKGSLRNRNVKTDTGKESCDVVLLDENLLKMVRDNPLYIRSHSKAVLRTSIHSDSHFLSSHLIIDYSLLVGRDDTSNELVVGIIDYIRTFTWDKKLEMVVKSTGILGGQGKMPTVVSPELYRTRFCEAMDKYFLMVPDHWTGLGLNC

[4] = test system: MDCK cells; conditions: dog
[5] = test system: SARS-CoV2; experiment: SARS-COV-2 IFA, inhibition of CPE (strain USA-WA1/2020); type: cell-based; conditions: CC50 divided by EC50
[6] = test system: SARS-CoV2 (Delta); experiment: SARS-COV-2 IFA, inhibition of CPE (Delta strain B.1.617); type: cell-based, SARS-COV-2 Delta strain B.1.617; conditions: CC50 divided by EC50
[7] = test system: Influenza A; experiment: Influenza A, inhibition of CPE; type: cell-based, influenza A strain California/07/09 (H1N1) pdm09; conditions: CC50 divided by EC50
[8] = test system: Marburg; type: cell-based, Marburg virus (Angola strain)
[9] = in vitro; conditions: dog, mdck
[10] = in vitro; conditions: monkey, vero cells
[11] = biological target: T1, PIKFYVE; experiment: KINOMEscan Kinase Assay (PIKFYVE inhibitory activity)
[12] = read-out: PIKfyve Activity (PIKfyve % inhibition)
[13] = read-out: PIKfyve Activity (% inhibition)

| Compound | inhibition at 0.001 µM [11, 12] | further results |
| --- | --- | --- |
| Cc1cccc(/C=N/Nc2cc(N3CCOCC3)nc(OCCc3ccccn3)n2)c1 [Apilimod] | – | inhibitor of IL-12 and IL-23 synthesis [1]: inhibitor of IL-12 and IL-23 synthesis; prevention of infection by enveloped viruses [2]: prevent infection by some of these enveloped viruses; PIKFYVE inhibitory activity [3]: potent PIKFYVE inhibitory activity |
| NC(=O)c1ncn([C@@H]2O[C@H](CO)[C@@H](O)[C@H]2O)n1 [ribavirin, reference compound] | – | CC50 [4]: > 1000 µM |
| Cc1cccc(-c2ccn(-c3nc(N4CCOCC4)c4sc(CN5CCN(S(C)(=O)=O)CC5)cc4n3)n2)c1 [Ex. 2, 4-(6-((4-(methylsulfonyl)piperazin-1-yl)methyl)-2-(3-(m-tolyl)-1H-pyrazol-1-yl)thieno[3,2-d]pyrimidin-4-yl)morpholine] | – | Selectivity Index [5]: >150; Selectivity Index [6]: >1000; Selectivity Index [7]: >150; Selectivity Index [8]: >15000; CC50 [4]: > 150 µM; CC50 [9]: > 3 µM; CC50 at 24 h [10]: > 3 µM |
| Cc1cccc(-c2ccn(-c3cc(N4CCOCC4)c4nc(CN5CCC(N(C)C)C(F)C5)n(C)c4n3)n2)c1 (stereo not shown) [Ex. 82, 3-fluoro-N,N-dimethyl-1-((3-methyl-7-morpholino-5-(3-(m-tolyl)-1H-pyrazol-1-yl)-3H-imidazo[4,5-b]pyridin-2-yl)methyl)piperidin-4-amine] | 52 to 100% | – |
| Cc1cccc(-c2ccn(-c3nc4[nH]c(C(=O)NC5CC5)nc4c(N4CCOCC4)c3F)n2)c1 [Ex. 307] | – | inhibition at 0.003 µM [11, 13]: 0% |
| Cc1cccc(-c2ccn(-c3cc(N4CCOCC4)c4nc(CN5CCC(N6CCC6)C(F)C5)n(C)c4n3)n2)c1 (stereo not shown) [Ex. 83, 4-(2-((4-(azetidin-1-yl)-3-fluoropiperidin-1-yl)methyl)-3-methyl-5-(3-(m-tolyl)-1H-pyrazol-1-yl)-3H-imidazo[4,5-b]pyridin-7-yl)morpholine] | 52 to 100% | – |
| Cc1cccc(-c2ccn(-c3cc(N4CCOCC4)c4sc(C(N)=O)cc4n3)n2)c1 [Ex. 293] | 52 to 100% | – |
| Cc1cccc(-c2ccn(-c3cc(N4CCOCC4)c4sc(C(=O)N5CC(F)C(N6CCC6)C5)cc4n3)n2)c1 (stereo not shown) [Ex. 239] | 52 to 100% | – |
| Cc1cccc(-c2ccn(-c3cc(N4CCOCC4)c4sc(C(=O)NC5CCN(C)CC5)cc4n3)n2)c1 [Ex. 186, N-(1-Methylpiperidin-4-yl)-7-morpholino-5-(3-(m-tolyl)-1H-pyrazol-1-yl)thieno[3,2-b]pyridine-2-carboxamide] | 52 to 100% | – |
| Cc1cccc(-c2ccn(-c3cc(N4CCOCC4)c4sc(CN5CCC(C(N)=O)CC5)cc4n3)n2)c1 [Ex. 297] | 52 to 100% | – |
| Cc1cccc(-c2ccn(-c3nc4[nH]c(C(=O)NC5COC5)nc4c(N4CCOCC4)c3F)n2)c1 [Ex. 310] | – | inhibition at 0.003 µM [11, 13]: 0% |
| Cc1cccc(-c2nc(-c3cc(N4CCOCC4)c4sc(CN5CCN(S(C)(=O)=O)CC5)cc4n3)co2)c1 [Ex. 242] | – | inhibition at 0.003 µM [11, 13]: 8% |
| Cc1cccc(-c2ccn(-c3cc(N4CCOCC4)c4sc(CO)c(C)c4n3)n2)c1 [Ex. 166, (3-Methyl-7-morpholino-5-(3-(m-tolyl)-1H-pyrazol-1-yl)thieno[3,2-b]pyridin-2-yl)methanol] | – | inhibition at 0.001 µM [11, 13]: 34%; inhibition at 0.003 µM [11, 13]: 14% |
| Cc1cccc(-c2ccn(-c3cc(N4CCOCC4)c4nc(C(=O)N5CCN(S(C)(=O)=O)CC5)[nH]c4n3)n2)c1 [Ex. 87] | – | inhibition at 0.001 µM [11, 13]: 20% |
| CC(=O)NC1CCN(Cc2nc3c(N4CCOCC4)cc(-n4ccc(-c5cccc(C)c5)n4)nc3[nH]2)CC1 [Ex. 302] | 52 to 100% | – |
| Cc1cccc(-c2ccn(-c3cc(N4CCOCC4)c4nc(CN5CC6CC5CN6S(C)(=O)=O)[nH]c4n3)n2)c1 (stereo not shown) [Ex. 281] | 52 to 100% | – |

| Compound | inhibition at 0.001 µM [11, 12] | further results |
| --- | --- | --- |
| Cc1cccc(-c2ccn(-c3nc(N4CCOCC4)c4sc(NCCN5CCOCC5)nc4n3)n2)c1 [Ex. 202, 7-Morpholino-N-(2-morpholinoethyl)-5-(3-(m-tolyl)-1H-pyrazol-1-yl)thiazolo-[4,5-d]pyrimidin-2-amine] | 52 to 100% | – |
| Cc1cccc(-c2ccn(-c3nc(N4CCOCC4)c4nc(C(=O)N5CCN(S(C)(=O)=O)CC5)n(C)c4n3)n2)c1 [Ex. 287] | 52 to 100% | – |
| Cc1cccc(-c2ccn(-c3cc(N4CCOCC4)c4sc(NC(=O)C5COC5)cc4n3)n2)c1 [Ex. 232] | – | inhibition at 0.001 µM [11, 13]: 24% |
| CC(=O)N1CCN(Cc2cc3nc(-n4ccc(-c5cccc(C)c5)n4)cc(N4CCOCC4)c3s2)CC1 [Ex. 295] | 52 to 100% | – |
| Cc1cccc(-c2ccn(-c3nc(N4CCOCC4)c4nc(C(=O)NC5CC5)[nH]c4n3)n2)c1 [Ex. 274] | 52 to 100% | – |
| Cc1cccc(-c2nc(-c3nc(N4CCOCC4)c4sc(CN5CCN(S(C)(=O)=O)CC5)cc4n3)cs2)c1 [Ex. 243] | 52 to 100% | – |
| CC(=O)c1cccc(-c2ccn(-c3cc(N4CCOCC4)c4sc(CN5CCOCC5)cc4n3)n2)c1 [Ex. 184, 1-(3-(1-(7-Morpholino-2-(morpholinomethyl)thieno[3,2-b]pyridin-5-yl)-1H-pyrazol-3-yl)phenyl) ethan-1-one] | – | inhibition at 0.005 µM [11, 13]: 10% |
| Cc1cccc(-c2ccn(-c3nc(N4CCOCC4)c4sc(CO)cc4n3)n2)c1 [Ex. 311] | 52 to 100% | – |
| CC(=O)NC1CCN(Cc2cc3nc(-n4ccc(-c5cccc(C)c5)n4)cc(N4CCOCC4)c3s2)CC1 [Ex. 296] | 52 to 100% | – |
| Cc1cccc(-c2ccn(-c3nc(N4CCOCC4)c4nc(C(=O)N5CCC(N6CCC6)C(F)C5)[nH]c4n3)n2)c1 (stereo not shown) [Ex. 85, (4-(Azetidin-1-yl)-3-fluoropiperidin-1-yl) (6-morpholino-2-(3-(m-tolyl)-1H-pyrazol-1-yl)-9H-purin-8-yl)methanone] | 52 to 100% | – |
| Cc1cccc(-c2ccn(-c3cc(N4CCOCC4)c4nc(CN5CCN(S(=O)(=O)C(C)C)CC5)[nH]c4n3)n2)c1 [Ex. 279] | 52 to 100% | – |
| Cc1cccc(-c2ccn(-c3cc(N4CCOCC4)c4sc(C(=O)NC5CCN(C)C5)cc4n3)n2)c1 (stereo not shown) [Ex. 200, N-(1-Methylpyrrolidin-3-yl)-7-morpholino-5-(3-(m-tolyl)-1H-pyrazol-1-yl)thieno[3,2-b]pyridine-2-carboxamide] | 52 to 100% | – |
| Cc1cccc(-c2ccn(-c3nc(N4CCOCC4)c4sc(NCCS(C)(=O)=O)nc4n3)n2)c1 [Ex. 209, N-(2-(Methylsulfonyl)ethyl)-7-morpholino-5-(3-(m-tolyl)-1H-pyrazol-1-yl)thiazolo[4,5-d]pyrimidin-2-amine] | 52 to 100% | – |
| Cc1cccc(-c2ccn(-c3nc(N4CCOCC4)c4sc(C(=O)N5CCN(S(C)(=O)=O)CC5)cc4n3)n2)c1 [Ex. 286] | 52 to 100% | – |
| Cc1cccc(-c2ccn(-c3cc(N4CCOCC4)c4sc(C(=O)NC5CCCN(C)C5)cc4n3)n2)c1 (stereo not shown) [Ex. 187, N-(1-Methylpiperidin-3-yl)-7-morpholino-5-(3-(m-tolyl)-1H-pyrazol-1-yl)thieno[3,2-b]pyridine-2-carboxamide] | 52 to 100% | – |
